Results as given in BindingDB's records for doi:10.3109/14756366.2011.578393 (Gitam University, 2012).
pIC50: −log10 of the molar value.

Biological target: Carbonic anhydrase 2 (Homo sapiens, UniProt P00918)
Assay: Enzyme Inhibition Assay
Details: pH 7.4; 25 °C
Method: Saturated CO2 solutions in water at 25°C were used as substrate. Stock solutions of inhibitors were prepared at a concentration of 10 mM (in dimethyl sulphoxidewater 1:1, v/v) and dilutions up to 1 mM done with the assay buffer mentioned above. […] Inhibitor and enzyme solutions were preincubated together for 10 min at room temperature prior to assay, in order to allow for the formation of the E-I complex.

Compound | pIC50
O=C(/C=C/C=C/c1ccc2c(c1)OCO2)N1CCCCC1 [1-[(2E,4E)-5-(1,3-benzodioxol-5-yl)penta-2,4-dienoyl]piperidine] | 2.70
Cn1c(=O)c2c(ncn2C)n(C)c1=O | 2.70
